In the supplement of paper PMC11424490:

Experiments:
Assay in all cases: combination cScore with adagrasib (Bliss gap around IC50) (%PoC); higher = stronger additive effect
SW837 = system: SW837
Procedure, shortened: (§1)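 After 24 h in 384-well plates (500 or 800 cells per well), NCI-H2122, NCI-H358 and SW837 cells received concentration matrices and grew for 72 h, except SW837, which grew for 144 h. CellTiter-Glo readings were scaled to vehicle wells and fitted with four-parameter curves. Each score is the averaged Bliss-independence difference (expected minus measured viability) over a region around both monotherapy IC50s, or at top concentrations when no IC50 was reached.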

NCI-H2122 = system: NCI-H2122
Procedure, shortened: as §1

NCI-H358 = system: NCI-H358
Procedure, shortened: as §1

Row | Structure (SMILES) | combination cScore with adagrasib (SW837) | combination cScore with adagrasib (NCI-H2122) | combination cScore with adagrasib (NCI-H358)
1 | COc1cc(N2CCC(N3CCN(C)CC3)CC2)ccc1Nc1ncc(Cl)c(Nc2ccccc2S(=O)(=O)C(C)C)n1 [NVP-TAE684] + C=C(F)C(=O)N1CCN(c2nc(OC[C@@H]3CCCN3C)nc3c2CCN(c2cccc4cccc(Cl)c24)C3)C[C@@H]1CC#N [adagrasib] | 23.6 | 12.8 | 3.66
2 | C[C@@H]1CN(CC(=O)Nc2ccc3c(c2)Cc2cccc(-c4cc(=O)cc(N5CCOCC5)o4)c2S3)C[C@H](C)O1 + C=C(F)C(=O)N1CCN(c2nc(OC[C@@H]3CCCN3C)nc3c2CCN(c2cccc4cccc(Cl)c24)C3)C[C@@H]1CC#N [adagrasib] | 3.63 | 18.9 | 6.62
3 | O=C(c1cc(Cc2n[nH]c(=O)c3ccccc23)ccc1F)N1CCN(C(=O)C2CC2)CC1 [Olaparib] + C=C(F)C(=O)N1CCN(c2nc(OC[C@@H]3CCCN3C)nc3c2CCN(c2cccc4cccc(Cl)c24)C3)C[C@@H]1CC#N [adagrasib] | 2.95 | 5.71 | 1.38
4 | CCNC(=O)C[C@@H]1N=C(c2ccc(Cl)cc2)c2cc(OC)ccc2-n2c(C)nnc21 [iBET-762] + C=C(F)C(=O)N1CCN(c2nc(OC[C@@H]3CCCN3C)nc3c2CCN(c2cccc4cccc(Cl)c24)C3)C[C@@H]1CC#N [adagrasib] | 0.28 | 22.7 | 5.14
5 | Cc1cc(C)c(CNC(=O)c2cc(-c3ccc(N4CCNCC4)nc3)cc3c2c(C)cn3C2CCCC2)c(=O)[nH]1 + C=C(F)C(=O)N1CCN(c2nc(OC[C@@H]3CCCN3C)nc3c2CCN(c2cccc4cccc(Cl)c24)C3)C[C@@H]1CC#N [adagrasib] | -0.2 | 20.3 | 5.44
6 | CCN(CCCOc1ccc2c(Nc3cc(CC(=O)Nc4cccc(F)c4)[nH]n3)ncnc2c1)CCOP(=O)(O)O [AZD-1152] + C=C(F)C(=O)N1CCN(c2nc(OC[C@@H]3CCCN3C)nc3c2CCN(c2cccc4cccc(Cl)c24)C3)C[C@@H]1CC#N [adagrasib] | 4.03 | 12.7 | 2.1
7 | CS(=O)(=O)CCNCc1ccc(-c2ccc3ncnc(Nc4ccc(OCc5cccc(F)c5)c(Cl)c4)c3c2)o1 [Lapatinib] + C=C(F)C(=O)N1CCN(c2nc(OC[C@@H]3CCCN3C)nc3c2CCN(c2cccc4cccc(Cl)c24)C3)C[C@@H]1CC#N [adagrasib] | 11.2 | 18.6 | 11.3
8 | C[C@H](Nc1ccc2c(c1)OCCn1cc(N3C(=O)OC[C@H]3C(F)F)nc1-2)C(N)=O [GDC-0077] + C=C(F)C(=O)N1CCN(c2nc(OC[C@@H]3CCCN3C)nc3c2CCN(c2cccc4cccc(Cl)c24)C3)C[C@@H]1CC#N [adagrasib] | 5.13 | 22.2 | 5.51
9 | Cc1c(N)nc([C@H](CC(N)=O)NC[C@H](N)C(N)=O)nc1C(=O)N[C@H](C(=O)N[C@H](C)[C@@H](O)[C@H](C)C(=O)N[C@H](C(=O)NCCc1nc(-c2nc(C(=O)NCCC[S+](C)C)cs2)cs1)[C@@H](C)O)[C@@H](OC1OC(CO)C(O)C(O)C1OC1OC(CO)C(O)C(OC(N)=O)C1O)c1cnc[nH]1 (stereo not given in full) [Bleomycin] + C=C(F)C(=O)N1CCN(c2nc(OC[C@@H]3CCCN3C)nc3c2CCN(c2cccc4cccc(Cl)c24)C3)C[C@@H]1CC#N [adagrasib] | 7.34 | 17.2 | -5.7
10 | CCc1c2c(nc3ccc(O)cc13)-c1cc3c(c(=O)n1C2)COC(=O)[C@]3(O)CC [SN-38] + C=C(F)C(=O)N1CCN(c2nc(OC[C@@H]3CCCN3C)nc3c2CCN(c2cccc4cccc(Cl)c24)C3)C[C@@H]1CC#N [adagrasib] | -1.14 | 6.93 | -1.51
11 | O=c1cc(-c2cccc3c2Sc2ccccc2S3)oc(N2CCOCC2)c1 + C=C(F)C(=O)N1CCN(c2nc(OC[C@@H]3CCCN3C)nc3c2CCN(c2cccc4cccc(Cl)c24)C3)C[C@@H]1CC#N [adagrasib] | 4.85 | 12.4 | 7.9
12 | C[C@H](NC(=O)c1c(N)nn2cccnc12)c1cc2cccc(C#Cc3cnn(C)c3)c2c(=O)n1-c1ccccc1 [IPI-549] + C=C(F)C(=O)N1CCN(c2nc(OC[C@@H]3CCCN3C)nc3c2CCN(c2cccc4cccc(Cl)c24)C3)C[C@@H]1CC#N [adagrasib] | 5.62 | 13 | -0.57
13 | O=C1c2c(O)ccc(O)c2C(=O)c2c(NCCNCCO)ccc(NCCNCCO)c21 [Mitoxantrone] + C=C(F)C(=O)N1CCN(c2nc(OC[C@@H]3CCCN3C)nc3c2CCN(c2cccc4cccc(Cl)c24)C3)C[C@@H]1CC#N [adagrasib] | 5.32 | 12.9 | 0.02
14 | COc1cc2ncnc(Nc3ccc(F)c(Cl)c3)c2cc1OCCCN1CCOCC1 [Gefitinib] + C=C(F)C(=O)N1CCN(c2nc(OC[C@@H]3CCCN3C)nc3c2CCN(c2cccc4cccc(Cl)c24)C3)C[C@@H]1CC#N [adagrasib] | 23.8 | 15.8 | 12.5
15 | O=C(c1c(F)ccc(NS(=O)(=O)N2CC[C@@H](F)C2)c1F)c1c[nH]c2ncc(-c3cnc(C4CC4)nc3)cc12 [PLX8394] + C=C(F)C(=O)N1CCN(c2nc(OC[C@@H]3CCCN3C)nc3c2CCN(c2cccc4cccc(Cl)c24)C3)C[C@@H]1CC#N [adagrasib] | -2.23 | 17.5 | 0.57
16 | C[C@@H]1OCC2(CCN(c3cnc(Sc4ccnc(N)c4Cl)c(N)n3)CC2)[C@@H]1N [TNO155] + C=C(F)C(=O)N1CCN(c2nc(OC[C@@H]3CCCN3C)nc3c2CCN(c2cccc4cccc(Cl)c24)C3)C[C@@H]1CC#N [adagrasib] | 31 | 49 | 9.32
17 | CC(C)C[C@H](NC(=O)[C@H](Cc1ccccc1)NC(=O)c1cnccn1)B(O)O [Bortezomib] + C=C(F)C(=O)N1CCN(c2nc(OC[C@@H]3CCCN3C)nc3c2CCN(c2cccc4cccc(Cl)c24)C3)C[C@@H]1CC#N [adagrasib] | -1.68 | 4.5 | 0
18 | CCc1nc(N)nc(N)c1-c1ccc(Cl)cc1 [Pyrimethamine] + C=C(F)C(=O)N1CCN(c2nc(OC[C@@H]3CCCN3C)nc3c2CCN(c2cccc4cccc(Cl)c24)C3)C[C@@H]1CC#N [adagrasib] | -3.37 | 15.2 | -2.05
19 | O=C(C1CC1)N1CC[C@@H](Cn2c(-c3ccc(-c4ccc5occc5c4)cc3)nc3cnccc32)C1 + C=C(F)C(=O)N1CCN(c2nc(OC[C@@H]3CCCN3C)nc3c2CCN(c2cccc4cccc(Cl)c24)C3)C[C@@H]1CC#N [adagrasib] | 7.68 | 7.98 | 7.72
20 | C=CC(=O)N1CCC[C@@H](n2nc(-c3ccc(Oc4ccccc4)cc3)c3c(N)ncnc32)C1 [Ibrutinib] + C=C(F)C(=O)N1CCN(c2nc(OC[C@@H]3CCCN3C)nc3c2CCN(c2cccc4cccc(Cl)c24)C3)C[C@@H]1CC#N [adagrasib] | 2.16 | 26.9 | 9.97
21 | CCN1CCN(Cc2ccc(Nc3ncc(F)c(-c4cc(F)c5nc(C)n(C(C)C)c5c4)n3)nc2)CC1 [Abemaciclib] + C=C(F)C(=O)N1CCN(c2nc(OC[C@@H]3CCCN3C)nc3c2CCN(c2cccc4cccc(Cl)c24)C3)C[C@@H]1CC#N [adagrasib] | 12.5 | 5.55 | 4.46
22 | COC(=O)[C@]12CCC(C)(C)C[C@H]1[C@H]1C(=O)C=C3[C@@]4(C)C=C(C#N)C(=O)C(C)(C)[C@@H]4CC[C@@]3(C)[C@]1(C)CC2 [Bardoxolone methyl] + C=C(F)C(=O)N1CCN(c2nc(OC[C@@H]3CCCN3C)nc3c2CCN(c2cccc4cccc(Cl)c24)C3)C[C@@H]1CC#N [adagrasib] | 0.43 | 5.12 | -4.25
23 | COc1ncc(-c2ccc3nccc(-c4ccnnc4)c3c2)cc1NS(=O)(=O)c1ccc(F)cc1F + C=C(F)C(=O)N1CCN(c2nc(OC[C@@H]3CCCN3C)nc3c2CCN(c2cccc4cccc(Cl)c24)C3)C[C@@H]1CC#N [adagrasib] | 4.03 | 23.1 | 5.98
24 | Oc1nc(-c2ccc(C(F)(F)F)cc2)nc2c1CSCC2 [XAV939] + C=C(F)C(=O)N1CCN(c2nc(OC[C@@H]3CCCN3C)nc3c2CCN(c2cccc4cccc(Cl)c24)C3)C[C@@H]1CC#N [adagrasib] | 5.74 | 23.8 | 4.11
25 | CC(C)N(CCCNC(=O)Nc1ccc(C(C)(C)C)cc1)C[C@H]1O[C@@H](n2ccc3c(N)ncnc32)[C@H](O)[C@@H]1O + C=C(F)C(=O)N1CCN(c2nc(OC[C@@H]3CCCN3C)nc3c2CCN(c2cccc4cccc(Cl)c24)C3)C[C@@H]1CC#N [adagrasib] | 2.74 | 19.1 | 9.87
